This test has as its target T1, HsPepT2 (Homo sapiens, UniProt Q16348).
T1 construct: The wild-type HsPepT2 gene was cloned into a pXLG vector; expressed in transfected cells; host or cells: HEK293F cells, transient transfection (pXLG vector)
T1 sequence (Q16348 1-729): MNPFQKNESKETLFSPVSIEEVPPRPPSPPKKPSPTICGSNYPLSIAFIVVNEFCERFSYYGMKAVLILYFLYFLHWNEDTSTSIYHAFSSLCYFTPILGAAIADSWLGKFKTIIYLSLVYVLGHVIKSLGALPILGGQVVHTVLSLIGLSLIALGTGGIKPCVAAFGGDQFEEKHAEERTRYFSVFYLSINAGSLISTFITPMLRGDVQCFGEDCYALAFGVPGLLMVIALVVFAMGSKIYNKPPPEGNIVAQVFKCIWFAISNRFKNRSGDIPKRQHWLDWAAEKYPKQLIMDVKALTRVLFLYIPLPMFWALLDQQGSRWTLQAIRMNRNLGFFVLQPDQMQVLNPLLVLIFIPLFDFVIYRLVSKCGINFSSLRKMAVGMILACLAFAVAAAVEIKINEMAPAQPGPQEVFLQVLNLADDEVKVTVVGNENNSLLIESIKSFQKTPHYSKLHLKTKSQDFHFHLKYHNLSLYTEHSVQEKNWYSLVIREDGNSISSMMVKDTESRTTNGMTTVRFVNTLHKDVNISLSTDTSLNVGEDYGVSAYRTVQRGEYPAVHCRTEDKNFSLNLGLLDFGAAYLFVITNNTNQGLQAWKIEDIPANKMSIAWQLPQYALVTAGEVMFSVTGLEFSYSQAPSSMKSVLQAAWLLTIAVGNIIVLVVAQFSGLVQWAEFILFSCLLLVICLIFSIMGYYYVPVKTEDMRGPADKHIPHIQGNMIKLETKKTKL
Put plainly: Whole-cell AK-AMCA uptake competition assay in HsPepT2-transfected HEK293F cells. The following applies: for IC50: HsPepT2-transfected HEK293F cells, 50 μM β-Ala-Lys-AMCA, pH 6.0, 10 min at 37°C, read-out: IC50, concentration-dependent competition of β-Ala-Lys-AMCA uptake. It is filed as cell-based. Here is the method: The wild-type […]2 gene was cloned into a pXLG vector ([61]) containing an expression cassette composed of an N-terminal hexa-histidine tag followed by enhanced green fluorescent protein and a tobacco etch virus protease cleavage site. […] The reaction was stopped by adding 200 μl of ice-cold buffer, and the cells were then washed three times with the same buffer. Last, the cells were resuspended in 200 μl of buffer, and the fluorescence was measured in an M1000 microplate reader (TECAN) with excitation at 350 nm and emission at 450 nm. All experiments were performed in triplicates. […] For concentration-dependent uptake experiments, IC50 values were processed in GraphPad Prism 9.0 (GraphPad Software) using sigmoidal four-parameter curve fitting.

Here are results for 3 molecules from publication PMC8565842, “Structural snapshots of human PepT1 and PepT2 reveal mechanistic insights into substrate and drug transport across epithelial membranes” (Science Advances, 2021).

As for `CC(C)[C@H](N)C(=O)OCC(CO)OCn1cnc2c(=O)nc(N)[nH]c21` (stereo partly drawn) [valganciclovir], the IC50 stood at 368.9 ± 1.5 µM. On the same count and under the same terms, in the case of `NCC(=O)CCC(=O)O` [5-aminolevulinic acid] it was 373.5 ± 1.6 µM.

ß-Ala-Lys-AMCA: the “Uptake of the fluorescent reporter after HsPepT2 overexpression” value (HEK293 cells overexpressing HsPepT2) is reported as “specific uptake”.
